From publication PMC6591251, “Discovery of potent necroptosis inhibitors targeting RIPK1 kinase activity for the treatment of inflammatory disorder and cancer metastasis” (Cell Death & Disease, 2019)

Legend:
Assay in all cases: RBC kinase panel
Format in all cases: biochemical
Settings in all cases: ATP 10 μM, Data1, Data2
MEKK6 = target: T1, MEKK6 (Homo sapiens, UniProt O95382)
T1 construct: purchased Reaction Biology Corporation
Procedure, shortened: (§1)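 Kinases from a 369-member human panel were incubated with 1 μM compound under 10 μM ATP, and every assay was done in duplicate.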

IKKb/IKBKB = target: T2, IKKb/IKBKB (Homo sapiens, UniProt O14920)
T2 construct: purchased Reaction Biology Corporation
Procedure, shortened: as §1

SYK = target: T3, SYK (Homo sapiens, UniProt P43405)
T3 construct: purchased Reaction Biology Corporation
Procedure, shortened: as §1

MLK1/MAP3K9 = target: T4, MLK1/MAP3K9 (Homo sapiens, UniProt P80192)
T4 construct: purchased Reaction Biology Corporation
Procedure, shortened: as §1

ABL1 = target: T5, ABL1 (Homo sapiens, UniProt P00519)
T5 construct: purchased Reaction Biology Corporation
T5 sequence (P00519 whole entry): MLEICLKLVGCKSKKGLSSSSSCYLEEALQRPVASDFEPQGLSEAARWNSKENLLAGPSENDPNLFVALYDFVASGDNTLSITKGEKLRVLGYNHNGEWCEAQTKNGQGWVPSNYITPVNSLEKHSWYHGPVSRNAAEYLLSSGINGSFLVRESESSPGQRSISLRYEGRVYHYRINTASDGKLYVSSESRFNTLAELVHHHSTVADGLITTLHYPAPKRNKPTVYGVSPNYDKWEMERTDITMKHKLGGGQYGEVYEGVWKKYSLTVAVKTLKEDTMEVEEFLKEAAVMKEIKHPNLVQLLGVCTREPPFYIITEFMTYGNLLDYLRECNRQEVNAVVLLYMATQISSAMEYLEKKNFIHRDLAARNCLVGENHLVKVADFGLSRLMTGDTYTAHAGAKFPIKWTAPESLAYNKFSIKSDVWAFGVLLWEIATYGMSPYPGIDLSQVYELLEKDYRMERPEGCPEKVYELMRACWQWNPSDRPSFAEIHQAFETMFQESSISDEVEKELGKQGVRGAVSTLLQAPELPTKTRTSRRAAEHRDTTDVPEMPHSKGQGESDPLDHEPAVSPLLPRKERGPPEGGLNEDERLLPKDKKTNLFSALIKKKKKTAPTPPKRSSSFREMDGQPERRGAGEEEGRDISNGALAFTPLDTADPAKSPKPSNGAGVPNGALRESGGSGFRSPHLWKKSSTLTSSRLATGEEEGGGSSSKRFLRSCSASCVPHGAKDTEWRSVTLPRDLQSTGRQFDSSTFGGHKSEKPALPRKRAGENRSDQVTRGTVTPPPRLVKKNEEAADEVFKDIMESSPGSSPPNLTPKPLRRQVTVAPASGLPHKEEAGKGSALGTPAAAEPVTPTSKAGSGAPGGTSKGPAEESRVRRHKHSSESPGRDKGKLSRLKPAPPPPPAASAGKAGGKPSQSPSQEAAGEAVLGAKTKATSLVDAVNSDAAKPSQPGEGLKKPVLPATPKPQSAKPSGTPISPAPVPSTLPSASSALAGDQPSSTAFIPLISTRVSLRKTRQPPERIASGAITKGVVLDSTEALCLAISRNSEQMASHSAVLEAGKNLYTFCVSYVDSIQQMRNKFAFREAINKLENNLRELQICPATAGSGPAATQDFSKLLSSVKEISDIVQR
Procedure, shortened: as §1

Haspin = target: T6, Haspin (Homo sapiens, UniProt Q8TF76)
T6 construct: purchased Reaction Biology Corporation
Procedure, shortened: as §1

EPHB3 = target: T7, EPHB3 (Homo sapiens, UniProt P54753)
T7 construct: purchased Reaction Biology Corporation
Procedure, shortened: as §1

EPHA2 = target: T8, EPHA2 (Homo sapiens, UniProt P29317)
T8 construct: purchased Reaction Biology Corporation
Procedure, shortened: as §1

ASK1/MAP3K5 = target: T9, ASK1/MAP3K5 (Homo sapiens, UniProt Q99683)
T9 construct: purchased Reaction Biology Corporation
T9 sequence (Q99683 whole entry): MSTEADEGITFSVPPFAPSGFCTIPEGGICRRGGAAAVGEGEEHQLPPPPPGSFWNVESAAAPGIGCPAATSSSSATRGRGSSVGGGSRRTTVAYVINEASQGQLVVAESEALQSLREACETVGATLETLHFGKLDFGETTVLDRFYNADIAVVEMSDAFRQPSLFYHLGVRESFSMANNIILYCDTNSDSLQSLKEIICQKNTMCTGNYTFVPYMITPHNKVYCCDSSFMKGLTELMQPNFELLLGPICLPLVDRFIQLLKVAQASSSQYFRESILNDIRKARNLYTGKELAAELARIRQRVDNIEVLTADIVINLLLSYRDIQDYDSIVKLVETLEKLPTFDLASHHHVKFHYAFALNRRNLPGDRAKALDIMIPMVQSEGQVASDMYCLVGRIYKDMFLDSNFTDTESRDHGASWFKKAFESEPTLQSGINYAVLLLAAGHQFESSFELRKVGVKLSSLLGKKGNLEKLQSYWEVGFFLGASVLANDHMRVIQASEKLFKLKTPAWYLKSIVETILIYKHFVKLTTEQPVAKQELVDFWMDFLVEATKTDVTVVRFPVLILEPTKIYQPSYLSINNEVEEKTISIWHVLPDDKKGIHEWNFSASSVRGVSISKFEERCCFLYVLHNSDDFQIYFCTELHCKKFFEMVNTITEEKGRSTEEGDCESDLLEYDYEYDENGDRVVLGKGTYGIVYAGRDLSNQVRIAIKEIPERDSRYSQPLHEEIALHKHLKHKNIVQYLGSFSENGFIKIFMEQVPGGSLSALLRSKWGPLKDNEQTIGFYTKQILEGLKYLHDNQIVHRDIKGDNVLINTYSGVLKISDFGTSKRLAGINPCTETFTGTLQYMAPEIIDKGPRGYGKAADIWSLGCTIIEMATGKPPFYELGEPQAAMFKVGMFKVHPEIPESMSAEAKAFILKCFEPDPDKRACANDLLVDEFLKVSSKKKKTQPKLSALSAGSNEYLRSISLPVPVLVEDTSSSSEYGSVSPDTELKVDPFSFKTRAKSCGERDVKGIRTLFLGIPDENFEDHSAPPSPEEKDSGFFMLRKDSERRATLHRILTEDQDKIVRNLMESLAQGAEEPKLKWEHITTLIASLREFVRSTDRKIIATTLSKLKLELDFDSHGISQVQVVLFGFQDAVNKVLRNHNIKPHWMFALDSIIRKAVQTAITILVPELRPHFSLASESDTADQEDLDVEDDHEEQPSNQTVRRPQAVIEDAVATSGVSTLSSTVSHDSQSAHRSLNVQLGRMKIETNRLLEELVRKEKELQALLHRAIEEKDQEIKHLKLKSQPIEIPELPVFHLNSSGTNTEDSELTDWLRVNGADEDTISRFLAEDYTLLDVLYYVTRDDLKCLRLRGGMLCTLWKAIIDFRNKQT
Procedure, shortened: as §1

PKAcb = target: T10, PKAcb (Homo sapiens, UniProt P22694)
T10 construct: purchased Reaction Biology Corporation
Procedure, shortened: as §1

GRK1 = target: T11, GRK1 (Homo sapiens, UniProt Q15835)
T11 construct: purchased Reaction Biology Corporation
Procedure, shortened: as §1

JNK3 = target: T12, JNK3 (Homo sapiens, UniProt P53779)
T12 construct: purchased Reaction Biology Corporation
T12 sequence (P53779 whole entry): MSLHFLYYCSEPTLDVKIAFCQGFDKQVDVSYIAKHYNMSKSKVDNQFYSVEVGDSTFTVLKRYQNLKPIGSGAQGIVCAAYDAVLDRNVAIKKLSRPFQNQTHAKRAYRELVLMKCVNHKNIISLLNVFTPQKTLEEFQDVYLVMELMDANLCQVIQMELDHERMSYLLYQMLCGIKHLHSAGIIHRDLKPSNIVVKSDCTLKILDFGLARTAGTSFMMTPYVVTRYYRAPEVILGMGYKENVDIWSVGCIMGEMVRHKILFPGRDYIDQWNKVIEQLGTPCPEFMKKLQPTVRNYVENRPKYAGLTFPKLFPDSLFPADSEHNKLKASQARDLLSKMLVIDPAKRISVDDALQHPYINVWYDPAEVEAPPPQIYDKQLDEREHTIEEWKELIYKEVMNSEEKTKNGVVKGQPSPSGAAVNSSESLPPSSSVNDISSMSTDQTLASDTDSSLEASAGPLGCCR
Procedure, shortened: as §1

TLK2 = target: T13, TLK2 (Homo sapiens, UniProt Q86UE8)
T13 construct: purchased Reaction Biology Corporation
Procedure, shortened: as §1

PKCeta = target: T14, PKCeta (Homo sapiens, UniProt P24723)
T14 construct: purchased Reaction Biology Corporation
Procedure, shortened: as §1

CK2a = target: T15, CK2a (Homo sapiens, UniProt P68400)
T15 construct: purchased Reaction Biology Corporation
T15 sequence (P68400 whole entry): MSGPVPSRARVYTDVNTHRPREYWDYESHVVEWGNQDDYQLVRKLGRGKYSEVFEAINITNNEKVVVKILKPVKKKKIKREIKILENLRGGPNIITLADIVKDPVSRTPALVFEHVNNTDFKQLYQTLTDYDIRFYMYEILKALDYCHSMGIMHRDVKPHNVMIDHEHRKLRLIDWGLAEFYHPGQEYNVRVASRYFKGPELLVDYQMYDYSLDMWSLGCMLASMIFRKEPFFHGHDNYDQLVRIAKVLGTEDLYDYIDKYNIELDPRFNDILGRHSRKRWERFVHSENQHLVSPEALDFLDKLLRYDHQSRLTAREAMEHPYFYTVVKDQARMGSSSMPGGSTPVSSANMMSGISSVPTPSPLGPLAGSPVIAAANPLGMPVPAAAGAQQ
Procedure, shortened: as §1

MNK2 = target: T16, MNK2 (Homo sapiens, UniProt Q9HBH9)
T16 construct: purchased Reaction Biology Corporation
Procedure, shortened: as §1

TEC = target: T17, TEC (Homo sapiens, UniProt P42680)
T17 construct: purchased Reaction Biology Corporation
Procedure, shortened: as §1

STK39/STLK3 = target: T18, STK39/STLK3 (Homo sapiens, UniProt Q9UEW8)
T18 construct: purchased Reaction Biology Corporation
Procedure, shortened: as §1

GRK5 = target: T19, GRK5 (Homo sapiens, UniProt P34947)
T19 construct: purchased Reaction Biology Corporation
Procedure, shortened: as §1

STK22D/TSSK1 = target: T20, STK22D/TSSK1 (Homo sapiens, UniProt Q9BXA7)
T20 construct: purchased Reaction Biology Corporation
T20 sequence (Q9BXA7 whole entry): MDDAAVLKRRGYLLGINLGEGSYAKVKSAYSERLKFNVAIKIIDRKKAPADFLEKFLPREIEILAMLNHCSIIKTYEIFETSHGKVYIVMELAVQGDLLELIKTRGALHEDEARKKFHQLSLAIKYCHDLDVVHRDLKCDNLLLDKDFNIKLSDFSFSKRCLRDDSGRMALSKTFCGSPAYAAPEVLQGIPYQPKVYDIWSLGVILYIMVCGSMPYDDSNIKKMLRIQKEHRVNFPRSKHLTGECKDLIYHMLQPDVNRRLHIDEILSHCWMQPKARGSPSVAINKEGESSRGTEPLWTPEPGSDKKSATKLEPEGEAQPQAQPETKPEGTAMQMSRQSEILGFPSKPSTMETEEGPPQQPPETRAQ
Procedure, shortened: as §1

BLK = target: T21, BLK (Homo sapiens, UniProt P51451)
T21 construct: purchased Reaction Biology Corporation
Procedure, shortened: as §1

CAMK1b = target: T22, CAMK1b (Homo sapiens, UniProt Q6P2M8)
T22 construct: purchased Reaction Biology Corporation
Procedure, shortened: as §1

MEK5 = target: T23, MEK5 (Homo sapiens, UniProt Q13163)
T23 construct: purchased Reaction Biology Corporation
Procedure, shortened: as §1

P38d/MAPK13 = target: T24, P38d/MAPK13 (Homo sapiens, UniProt O15264)
T24 construct: purchased Reaction Biology Corporation
T24 sequence (O15264 whole entry): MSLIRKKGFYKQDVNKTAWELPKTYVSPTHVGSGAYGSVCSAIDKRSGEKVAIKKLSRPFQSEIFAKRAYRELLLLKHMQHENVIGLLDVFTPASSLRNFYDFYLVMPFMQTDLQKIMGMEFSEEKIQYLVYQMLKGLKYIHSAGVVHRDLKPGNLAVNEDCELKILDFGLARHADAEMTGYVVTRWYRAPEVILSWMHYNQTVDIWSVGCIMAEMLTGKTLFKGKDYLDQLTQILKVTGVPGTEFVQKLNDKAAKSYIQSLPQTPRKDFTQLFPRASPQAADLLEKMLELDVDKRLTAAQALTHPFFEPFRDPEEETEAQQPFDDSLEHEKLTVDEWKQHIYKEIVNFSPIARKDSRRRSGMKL
Procedure, shortened: as §1

CDK3/cyclin E = target: T25, CDK3/cyclin E (Homo sapiens, UniProt Q00526)
T25 construct: purchased Reaction Biology Corporation
Procedure, shortened: as §1

MLCK2/MYLK2 = target: T26, MLCK2/MYLK2 (Homo sapiens, UniProt Q9H1R3)
T26 construct: purchased Reaction Biology Corporation
Procedure, shortened: as §1

PDGFRb = target: T27, PDGFRb (Homo sapiens, UniProt P09619)
T27 construct: purchased Reaction Biology Corporation
Procedure, shortened: as §1

FGFR2 = target: T28, FGFR2 (Homo sapiens, UniProt P21802)
T28 construct: purchased Reaction Biology Corporation
Procedure, shortened: as §1

STK38/NDR1 = target: T29, STK38/NDR1 (Homo sapiens, UniProt Q15208)
T29 construct: purchased Reaction Biology Corporation
Procedure, shortened: as §1

TGFBR2 = target: T30, TGFBR2 (Homo sapiens, UniProt P37173)
T30 construct: purchased Reaction Biology Corporation
Procedure, shortened: as §1

CLK1 = target: T31, CLK1 (Homo sapiens, UniProt P49759)
T31 construct: purchased Reaction Biology Corporation
Procedure, shortened: as §1

EPHB1 = target: T32, EPHB1 (Homo sapiens, UniProt P54762)
T32 construct: purchased Reaction Biology Corporation
Procedure, shortened: as §1

RIPK5 = target: T33, RIPK5 (Homo sapiens, UniProt Q6XUX3)
T33 construct: purchased Reaction Biology Corporation
T33 sequence (Q6XUX3 whole entry): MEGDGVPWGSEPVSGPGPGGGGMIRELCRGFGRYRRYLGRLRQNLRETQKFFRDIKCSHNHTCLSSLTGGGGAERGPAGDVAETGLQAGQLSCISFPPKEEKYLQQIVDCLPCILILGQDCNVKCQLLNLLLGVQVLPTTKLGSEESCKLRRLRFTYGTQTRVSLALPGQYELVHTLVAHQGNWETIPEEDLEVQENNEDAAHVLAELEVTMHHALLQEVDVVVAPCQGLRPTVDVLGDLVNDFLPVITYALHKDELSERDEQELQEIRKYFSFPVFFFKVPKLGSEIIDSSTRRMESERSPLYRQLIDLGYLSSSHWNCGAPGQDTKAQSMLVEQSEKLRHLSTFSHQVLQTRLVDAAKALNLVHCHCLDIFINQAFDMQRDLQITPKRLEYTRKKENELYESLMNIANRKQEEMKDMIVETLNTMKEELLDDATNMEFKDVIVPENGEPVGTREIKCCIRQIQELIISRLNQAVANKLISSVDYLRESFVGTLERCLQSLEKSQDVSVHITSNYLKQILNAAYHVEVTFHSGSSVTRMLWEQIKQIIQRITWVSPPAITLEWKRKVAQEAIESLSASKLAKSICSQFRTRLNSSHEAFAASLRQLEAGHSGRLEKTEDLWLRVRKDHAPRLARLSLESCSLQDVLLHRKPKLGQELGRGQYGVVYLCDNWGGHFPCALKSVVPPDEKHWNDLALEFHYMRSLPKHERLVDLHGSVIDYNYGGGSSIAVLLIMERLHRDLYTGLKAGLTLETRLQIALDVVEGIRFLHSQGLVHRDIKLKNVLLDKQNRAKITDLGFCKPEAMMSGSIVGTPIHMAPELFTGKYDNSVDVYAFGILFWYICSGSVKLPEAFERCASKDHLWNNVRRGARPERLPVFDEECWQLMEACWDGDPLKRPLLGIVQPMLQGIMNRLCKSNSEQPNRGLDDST
Procedure, shortened: as §1

Compound `CC(=O)Nc1nc2ccc(-c3cnc(C)c(NC(=O)OC4CCCCC4)c3)cc2s1` [PK68, cyclohexyl (5-(2-acetamidobenzo[d]thiazol-6-yl)-2-methylpyridin-3-yl)carbamate] has an Activity% (MEKK6; 1 μM) of 88.83%, an activity at 1 µM (MEKK6) of 91.3% and an Activity% (IKKb/IKBKB; 1 μM) of 107.97%. The activity at 1 µM (IKKb/IKBKB) was 109%, the Activity% (SYK; 1 μM) was 98.85% and the activity at 1 µM (SYK) was 99.5%. It also gave an Activity% (MLK1/MAP3K9; 1 μM) of 99.64%, an activity at 1 µM (MLK1/MAP3K9) of 99.7% and an Activity% (ABL1; 1 μM) of 74.18%. For the same compound, the activity at 1 µM (ABL1) was 74.3%, the Activity% (Haspin; 1 μM) was 94.31% and the activity at 1 µM (Haspin) was 94.5%. It also gave an Activity% (EPHB3; 1 μM) of 98.23%, an activity at 1 µM (EPHB3) of 98.8% and an Activity% (EPHA2; 1 μM) of 94.92%. It also gave an activity at 1 µM (EPHA2) of 95.2%, an Activity% (ASK1/MAP3K5; 1 μM) of 93.46% and an activity at 1 µM (ASK1/MAP3K5) of 95.2%. For the same compound, the Activity% (PKAcb; 1 μM) was 100.88%, the activity at 1 µM (PKAcb) was 103% and the Activity% (GRK1; 1 μM) was 99.42%. For the same compound, the activity at 1 µM (GRK1) was 100%, the Activity% (JNK3; 1 μM) was 99.15% and the activity at 1 µM (JNK3) was 101%. It also gave an Activity% (TLK2; 1 μM) of 96.86%, an activity at 1 µM (TLK2) of 98.1% and an Activity% (PKCeta; 1 μM) of 90.40%. For the same compound, the activity at 1 µM (PKCeta) was 92.8%, the Activity% (CK2a; 1 μM) was 90.49% and the activity at 1 µM (CK2a) was 95.2%. The Activity% (MNK2; 1 μM) was 88.77%, the activity at 1 µM (MNK2) was 90.5% and the Activity% (TEC; 1 μM) was 97.93%. It also gave an activity at 1 µM (TEC) of 99%, an Activity% (STK39/STLK3; 1 μM) of 92.54% and an activity at 1 µM (STK39/STLK3) of 95.8%. It also gave an Activity% (GRK5; 1 μM) of 103.56%, an activity at 1 µM (GRK5) of 104% and an Activity% (STK22D/TSSK1; 1 μM) of 103.75%. The activity at 1 µM (STK22D/TSSK1) was 104%, the Activity% (BLK; 1 μM) was 93.58% and the activity at 1 µM (BLK) was 95.4%. It also gave an Activity% (CAMK1b; 1 μM) of 99.49%, an activity at 1 µM (CAMK1b) of 101% and an Activity% (MEK5; 1 μM) of 97.06%. The activity at 1 µM (MEK5) was 97.5%, the Activity% (P38d/MAPK13; 1 μM) was 95.45% and the activity at 1 µM (P38d/MAPK13) was 95.8%. It also gave an Activity% (CDK3/cyclin E; 1 μM) of 91.48%, an activity at 1 µM (CDK3/cyclin E) of 91.7% and an Activity% (MLCK2/MYLK2; 1 μM) of 50.92%. The activity at 1 µM (MLCK2/MYLK2) was 51.3%, the Activity% (PDGFRb; 1 μM) was 75.13% and the activity at 1 µM (PDGFRb) was 76.7%. It also gave an Activity% (FGFR2; 1 μM) of 88.90%, an activity at 1 µM (FGFR2) of 91% and an Activity% (STK38/NDR1; 1 μM) of 96.05%. For the same compound, the activity at 1 µM (STK38/NDR1) was 98.9%, the Activity% (TGFBR2; 1 μM) was 114.72% and the activity at 1 µM (TGFBR2) was 115%. The Activity% (CLK1; 1 μM) was 80.72%, the activity at 1 µM (CLK1) was 81.9% and the Activity% (EPHB1; 1 μM) was 95.01%. The activity at 1 µM (EPHB1) was 95.5%, the Activity% (RIPK5; 1 μM) was 102.45% and the activity at 1 µM (RIPK5) was 103%.
